System: breast cancer
Assay: mouse model for breast cancer, tumor mass and regrowth
Assay type: in vivo
Conditions: for tumor regrowth / change in tumor mass on estrogen stimulation: stimulated with estrogen at day 115; for tumor size and regrowth: followed to 180 days
Description: Carbendazim is administered to the mice at 4000, 5000, and 6000 mg/kg of body weight in a separate leg.

Row | Structure (SMILES) | tumor regrowth (cytoxan treated control, no carbendazim) | tumor regrowth / change in tumor mass on estrogen stimulation | tumor size and regrowth (carbendazim at 4000, 5000 and 6000 mg/kg given after 130 days to mice that had been treated with cytoxan) | dose dependence of tumor growth (carbendazim at 4000, 5000 and 6000 mg/kg of body weight) | tumor size and regrowth (carbendazim at 4000, 5000 and 6000 mg/kg of body weight in a separate leg)
1 | O=P1(N(CCCl)CCCl)NCCCO1 (stereo not drawn) [cytoxan] | tumor regrowth after 100 days | rapid regrowth | – | – | –
2 | COC(=O)Nc1nc2ccccc2[nH]1 [Carbendazim, 2-methoxycarbonylamino-benzimidazole] | – | no significant change in tumor mass | The tumor continued to decrease in size and its regrowth was limited even after 180 days | dose dependent | The tumor continued to decrease in size and its regrowth was limited even after 180 days

Reference: patent US20010053773A1, “Method for inhibiting the growth of cancers” (The Procter & Gamble Company, priority 1998, published 2001)
